From patent US4101538A, “Nonapeptides and methods for their production” (Warner-Lambert, priority 1977, dated 1978)
Where a SMILES comes first, the peptide text is derived from it. The star is where a group is joined. Cbz = O=C(OCc1ccccc1)*; Bn = c1ccc(C*)cc1

Tested on: LRF (luteinizing hormone releasing factor) induced luteinizing hormone (LH) release
Experiment: In vitro LRF antagonist test in rat anterior pituitary cell cultures
Format: cell-based
Description: Nonapeptides of this invention were screened for LRF antagonist activity in vitro using rat anterior pituitary cell cultures as described by Vale et. al. [Endocrinology, 91, 562 (1972)]. The inhibition of LRF (luteinizing hormone releasing factor) induced luteinizing hormone (LH) release into the culture medium is the endpoint in this in vitro bioassay.

Compound	% LH Release Inhibition (compound molar conc. 1×10^-7) [%]	LH Value (compound molar conc. 1×10^-7, LH released into culture medium) [ng/mL]	% LH Release Inhibition (compound molar conc. 1×10^-8) [%]	LH Value (compound molar conc. 1×10^-8, LH released into culture medium) [ng/mL]	LH Value (LRF alone, molar conc. 5×10^-10) [ng/mL]
NC(=O)CC[C@H](NC(=O)OCc1ccccc1)C(=O)N[C@@H](Cc1c[nH]c2ccccc12)C(=O)N[C@@H](CO)C(=O)N[C@@H](Cc1ccc(O)cc1)C(=O)N[C@@H](Cc1c[nH]c2ccccc12)C(=O)N1CCC[C@H]1C(=O)N1CCC[C@H]1C(=O)N[C@@H](Cc1ccc(OCc2ccccc2)cc1)C(=O)N[C@@H](COCc1ccccc1)C(N)=O [N^α -benzyloxycarbonyl-L-glutaminyl-L-tryptophyl-L-seryl-L-tyrosyl-L-tryptophyl-L-prolyl-L-prolyl-O-benzyl-L-tyrosyl-O-benzyl-L-serinamide] (Cbz-QWSYWPPY(Bn)S(Bn)-NH2)	29	52.33	37	47.20	
LRF Control: luteinizing hormone releasing factor, also referred to as luteinizing hormone releasing hormone (LH-RH); stimulates secretion of luteinizing hormone (QHWSYGLRPG; Gonadoliberin-1; UniProt P01148 24-33, looked up) [reference compound]					69.51
